#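 Dose response: 5 concentrations. Exposure: 48 h. Format: 96-well plates. Endpoint: linear interpolation; highest concentration if not reached. GI50 marks 50% less growth. Definition used: TGI = concentration required for complete inhibition of growth.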
# What was measured:
# Assay in all cases: NCI-60 cell line screen, 48 h
# [1] = tested on: ACHN renal
# [2] = tested on: HCC-2998 colon
# [3] = tested on: HCT-116 colon
# [4] = tested on: HOP-92 NSCLC
# [5] = tested on: M14 melanoma
# [6] = tested on: SF-295 CNS
# [7] = tested on: SR leukemia
# [8] = tested on: U251 CNS
# [9] = tested on: NCI-H522 lung
# [10] = tested on: BT-549 breast
Structure (SMILES),TGI [1] [µM],TGI [2] [µM],TGI [3] [µM],TGI [4] [µM],TGI [5] [µM],TGI [6] [µM],TGI [7] [µM],TGI [8] [µM],GI50 [1] [µM],GI50 [2] [µM],GI50 [3] [µM],GI50 [4] [µM],TGI [9] [µM],GI50 [10] [µM],TGI [10] [µM],GI50 [5] [µM],GI50 [9] [µM],GI50 [6] [µM],GI50 [8] [µM],GI50 [7] [µM]
O=S(=O)(/C=C/CS(=O)(=O)c1ccccc1)c1ccccc1,> 100,57.1,57.1,> 100,67.3,93.6,36.4,77.5,,,,,,,,,,,,
CC(=O)O[C@H]1CCC2[C@@H]3CCC4c5nonc5CC[C@]4(C)C3CC[C@@]21C (some centres undefined),> 100,> 100,> 100,> 100,> 10,> 10,,> 10,> 10,> 100,> 100,> 100,> 10,,,,,,,
COc1cc([N+](=O)[O-])c(OC)cc1-c1nc2sccn2c1/C=N/N=C(N)N,28.8,,94.4,45.4,> 100,> 100,,15,12.8,,21.7,19.3,> 100,18.6,42.2,40.8,21,19.5,3.66,
COc1ccc2nc3cc(Cl)ccc3c(SCC(=O)Nc3ccccc3-c3ccccc3NC(=O)CSc3c4ccc(Cl)cc4nc4ccc(OC)cc34)c2c1,> 100,> 100,> 100,> 100,> 100,> 100,,> 100,,,,,> 100,,,,,,,
COc1cnc2c(c1)C(=O)c1c-2n(CCCNC2=NCCS2)c(=O)c2cc(Cl)ccc12,1.49,2.68,2.19,,1.81,1.07,,1.82,0.0487,1.36,0.352,,,1.05,2.56,0.0829,,0.0776,0.0546,
COc1cc(/C=C/C(=O)c2ccc(F)cc2)ccc1OCCCN1CCN(CC(=O)Nc2ccc(Cl)cc2C(=O)c2ccccc2Cl)CC1,32.3,40.1,11.1,10.3,13.3,19,,17.3,12.5,16.6,2.23,1.38,33.7,10.8,26.2,3.4,14.4,5.57,5.01,
Oc1c(Cl)c(Cl)c(O)c2c1CCCC2,3.27,30.6,2.83,4.85,32.5,37.6,,42.7,,,,,,,28.1,,,,,
CCCN(CCC)C(=O)C(=O)c1c(N)[nH]n(-c2ccccc2)c1=O,> 100,> 100,> 100,> 100,> 100,> 100,,> 100,,,,,> 100,,,,,,,
O=C1/C(=N\O)S(=O)(=O)c2ccccc21,> 100,> 100,> 100,> 100,> 100,> 100,> 100,> 100,,,,,> 100,,,,,,,
NC(=O)NC12CC3CC(CC(F)(C3)C1)C2,> 100,> 100,> 100,> 100,> 100,,,> 100,,,,,> 100,,,,,,,
CC(C)(c1ccccc1)c1ccc(Oc2ccc(C#N)c(C#N)c2)cc1,> 100,> 100,> 100,> 100,> 100,> 100,,> 100,,> 100,,,84.8,,,,16.9,,,
O=C(O)C(CS)NCc1c2ccccc2nc2ccccc12 (centres undefined),> 100,> 100,> 100,88.9,,> 100,97.3,> 100,,,,,88,,,,,,,
O=S(=O)(c1cccc2c(I)cccc12)N1CCCNCC1,33.6,35.1,32.6,32.5,39.2,34.1,,39.1,18.1,17.4,15.4,14.1,30.3,16.7,43.3,19.8,14.8,16.1,19.6,
O=[N+]([O-])c1cc(Cl)cnc1Br,4.66,3.05,24,25.4,16.3,10.6,,5.32,,,,,,,11.3,,,,,
COC1=C(C)C(=O)c2c(cc3c(c2O)C(C)(CCC=C(C)C)C(C)O3)C1=O (centres undefined),> 100,> 78.8,> 100,> 100,55.7,52.7,> 100,> 100,,,,,> 100,,,,,,,
CNC(=O)OCc1c2ccncc2c(C)c2c1[nH]c1ccc(OC)cc12,0.563,1.02,0.777,0.618,1.81,> 100,,0.893,,,,,1.13,,,,,,,
COC(=O)C(CC1=C(O)Nc2ccccc2N1)/C(=N/NC(N)=O)C(=O)Nc1ccccc1C (centres undefined),> 100,> 100,36.8,> 100,> 100,> 100,48.5,> 100,,,,,33.9,,,,,,,
COc1ccc(C(=O)/C=C/c2cccc(Nc3ccnc4cc(Cl)ccc34)c2)cc1,,,12.2,7.08,> 100,16.3,3.77,4.82,,,0.844,1.09,> 100,,,1.6,1.88,0.694,1.74,0.491
COc1cccc(NC(=O)CC(=O)N2N=C(N3c4ccccc4Sc4ccccc43)CC2c2ccccc2)c1 (centres undefined),> 100,> 100,> 100,> 100,> 100,> 100,> 100,> 100,,,,,,,,,,,,

Structure (SMILES),TGI [1] [µM],TGI [2] [µM],TGI [3] [µM],TGI [4] [µM],TGI [5] [µM],TGI [6] [µM],TGI [7] [µM],TGI [8] [µM],GI50 [1] [µM],GI50 [2] [µM],GI50 [3] [µM],GI50 [4] [µM],TGI [9] [µM],GI50 [10] [µM],TGI [10] [µM],GI50 [5] [µM],GI50 [9] [µM],GI50 [6] [µM],GI50 [8] [µM],GI50 [7] [µM]
CCc1ccccc1NC(=O)/C(N=O)=C(/C)O,> 100,> 100,> 100,,> 100,> 100,,> 100,,,,,> 100,,,,,,,
CCOC(=O)c1cc2c(n1Cc1cc(OC)c(OC)c(OC)c1)-c1oncc1CCC2,> 59.9,5.17,> 100,,,,5.5,5.01,0.296,0.335,0.235,,0.073,0.647,22,,0.0208,,0.214,0.0464
CC1=C(C(=O)N(C)c2ccc(Cl)c(C(=O)OC(C)C)c2)SCCO1,> 100,> 100,> 100,> 100,> 100,> 100,,> 100,,,,,> 100,,> 100,,,,,
Cn1cc(-c2csc(-c3cn(CCCN4CCCCC4)c4ccccc34)n2)c2cccnc21,3.01,3.23,,35.2,3.38,3.18,,3.38,1.63,1.68,,13.3,41,1.56,2.94,1.82,17.8,1.71,1.87,
C[CH2][Sn]([CH2]C)([O]C(=O)c1ccccc1F)[O][Sn]([CH2]C)([CH2]C)[O]C(=O)c1ccccc1F,33,> 73.8,> 70.9,34.7,> 57.2,> 57.8,> 100,31.6,18.7,> 43.7,38,19,2.61,,,26.5,1.24,42.1,17.1,34.6
COc1ccc(CC2(Cc3ccc(OC)cc3)CCOC2=O)cc1,> 100,,> 100,> 100,> 100,> 100,> 100,> 100,,,,,> 100,,,,,,,
CCc1cccc(C)c1NC(=O)C1=C(C)NC(C)=C(C(=O)Nc2c(C)cccc2CC)C1c1ccc2c(c1)OCO2,29.6,33.8,,59.3,33.8,43.7,,32.1,,,,,30.1,,,,,,,
Cc1nn(C)c(COc2ccc(N3CCN(S(=O)(=O)N(C)C)CC3)cc2)c1-c1cccc2c(CCCOc3cccc4ccccc34)c(C(=O)O)n(CCN3CCOCC3)c12,15.7,9.34,15,6.56,5.32,10.2,11,11.5,4.03,2.81,3.08,2.01,9.35,,,2.28,3.11,2.78,3.13,3.13
Cc1[nH]c2ccc(F)cc2c1-c1nc2c3cccnc3c3ncccc3c2[nH]1,> 100,> 100,> 100,,> 100,> 100,> 100,> 100,0.327,0.321,0.263,,,0.295,> 100,0.278,,0.428,0.244,0.134
CC(=O)[O][Sn]([CH2]c1ccccc1)([CH2]c1ccccc1)[CH2]c1ccccc1,> 10,> 10,> 10,,> 10,> 6.84,> 4.64,> 10,> 10,> 6.73,> 9.18,,> 7.23,> 10,> 10,> 8.37,> 3.86,> 5.52,> 10,3.76
COc1ccc(N(/C=C/C(=O)C(F)(F)F)CC(=O)c2ccc(F)cc2)cc1,41.2,38.9,27.9,,56.7,91,44.3,28.3,16.3,21.4,14.7,,36.9,30.4,> 100,20.6,18.7,27.4,13.1,19.1
COc1cc2c(cc1OC)[C@@H](Nc1ccc(F)cc1)C1COC(=O)[C@@H]1C2c1cc(OC)c(O)c(OC)c1 (some centres undefined),2.49,9.9,> 100,,10.5,6.28,0.282,4.03,,,,,18.9,,,,,,,
O=C(NC(=Nc1ccccc1)SCCSC(=Nc1ccccc1)NC(=O)c1cccs1)c1cccs1,> 100,> 100,> 100,46.1,> 100,> 100,,> 100,,,,,63.6,,,,,,,
Cc1[nH]c(=O)nc(Nc2ccc(Cl)cc2)c1C(=O)N1CCN(CCO)CC1,> 100,> 100,> 100,71.6,> 100,> 100,,> 100,> 100,> 100,81.9,28.7,> 100,53.8,> 100,> 100,59.8,32.1,37.6,
Cc1ccc(-c2csc(NC(=O)N3CCN(c4cc5c(cc4F)c(=O)c(C(=O)O)cn5C4CC4)CC3)n2)cc1,4.22,> 100,> 100,3.91,> 100,28.5,,14.8,0.307,0.699,0.335,0.431,2.15,0.345,2.65,1.2,0.291,0.762,0.392,
C[C@]12CCC(=O)CC1CCCC2=O (some centres undefined),,> 100,> 100,> 100,> 100,> 100,,> 100,,,,,> 100,,,,,,,
CCN(CC)c1oc(N(CC)CC)c(C(=O)Nc2ccccn2)c(=O)c1C(C)=O,> 100,,> 100,> 100,> 100,,> 100,> 100,,,,,> 100,,,,,,,
[O-]c1ccccc1/C=N/C(/N=C/c1ccccc1[O-])c1ccccc1O.[O-]c1ccccc1/C=N/C(/N=C/c1ccccc1[O-])c1ccccc1O.[Zr+4],> 100,> 100,> 100,,> 100,> 100,,> 100,36.1,34.7,40.8,,65.3,,,46.6,10.9,31.8,36.7,
